Data on six molecules can be found in US6723332B2 (dated 2004).

Structures are written as SMILES. Some results are limits rather than exact numbers.

In general, melting point refers to the temperature, or range, at which the solid turns liquid. With `O=C(Nc1cccc(C(F)(F)F)c1F)C1C=Nc2cccc(=O)n21` (stereo not drawn), the melting point is 274 to 277 °C (dec.).

Turning to `CCOc1ccc(NC(=O)C2C=Nc3cccc(=O)n32)c(F)c1` (stereo not drawn), the melting point is > 216 °C (dec.).

Consider `CN(C)CCOc1ccc(NC(=O)C2C=Nc3cccc(=O)n32)cc1` (stereo not drawn), for which the melting point was 198 to 210 °C.

Regarding `O=C(Nc1ccc(OC(F)(F)F)cc1)C1C=Nc2cccc(=O)n21` (stereo not drawn), the melting point lay within 273 to 275 °C.

For the molecule `Cc1ccc(F)c(NC(=O)C2C=Nc3cccc(=O)n32)c1` (stereo not drawn), the melting point is 280 to 285 °C (dec.).

Turning to `Cc1cc(=O)n2c(C(=O)Nc3cc(F)ccc3F)c[nH]c2c1`, the melting point was > 285 °C (dec.).
